Drawing on patent US10689377B2 (Mirati Therapeutics, Inc., priority 2017, dated 2020), this text covers IC50 for 25 molecules.

Each structure is given as a SMILES string. pIC50: −log10 of the molar value.

KRas G12C, sequence (P01116 1-188 isoform P01116-2 G12C): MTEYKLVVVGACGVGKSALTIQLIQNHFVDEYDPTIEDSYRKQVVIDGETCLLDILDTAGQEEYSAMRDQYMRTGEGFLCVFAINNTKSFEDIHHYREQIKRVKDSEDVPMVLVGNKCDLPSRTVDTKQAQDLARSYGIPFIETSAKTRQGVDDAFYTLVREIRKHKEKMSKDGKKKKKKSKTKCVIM

In the assay the target is KRas G12C (Homo sapiens, UniProt P01116, G12C). Put plainly: Cellular inhibition of KRas G12C measured by Phospho-ERK in NCI-H358 cells. In kind it is cell-based. Particulars: pERK(Thr202/Tyr204) normalized with GAPDH, NCI-H358 cells, 3 hours; read-out: IC50. Summed up:
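Ratio of phospho-ERK(Thr202/Tyr204) to GAPDH, read by near-infrared secondary antibodies on fixed, permeabilised NCI-H358 cells, expressed relative to DMSO control. Compound exposure was 3 h at 0.5% DMSO. IC50 values come from 4-parameter curve fits.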
As for `C=CC(=O)N1CCN(c2nc(OC[C@H]3CCCN3C)nc3c2CCN(c2cccc(F)c2C(F)(F)F)C3)C[C@@H]1CC#N` [Example 274, 2-((S)-1-acryloyl-4-(7-(3-fluoro-2-(trifluoromethyl)phenyl)-2-(((R)-1-methylpyrrolidin-2-yl)methoxy)-5,6,7,8-tetrahydropyrido[3,4-d]pyrimidin-4-yl)piperazin-2-yl)acetonitrile], the pIC50 is 6.00 to 10.00.

For `C=CC(=O)N1CCN(c2nc(OC[C@@H]3CCCN3C)nc3c2CCN(c2cncc4ccccc24)C3)CC1CC#N` (stereo partly drawn) [Example 260, 2-[4-[7-(4-isoquinolyl)-2-[[(2S)-1-methylpyrrolidin-2-yl]methoxy]-6,8-dihydro-5H-pyrido[3,4-d]pyrimidin-4-yl]-1-prop-2-enoyl-piperazin-2-yl]acetonitrile], the pIC50 was 6.00 to 10.00.

In the case of `C=CC(=O)N1CCN(c2nc(OCCN(C)C)nc3c2CCN(c2cc(O)cc4ccccc24)C3)CC1CO` (stereo not shown) [Example 50, 1-(4-(2-(2-(dimethylamino)ethoxy)-7-(3-hydroxynaphthalen-1-yl)-5,6,7,8-tetrahydropyrido [3,4-d]pyrimidin-4-yl)-2-(hydroxymethyl)piperazin-1-yl)prop-2-en-1-one], the pIC50 was under 6.00.

Take `C=CC(=O)N1CCN(c2nc(O[C@H]3CCCN(C)C3)nc3c2CCN(c2cc(O)cc4ccccc24)C3)CC1` [Example 66, (S)-1-(4-(7-(3-hydroxynaphthalen-1-yl)-2-((1-methylpiperidin-3-yl)oxy)-5,6,7,8-tetrahydropyrido[3,4-d]pyrimidin-4-yl)piperazin-1-yl)prop-2-en-1-one]: the pIC50 is under 6.00.

`Cc1cccc2cccc(N3CCc4c(nc(OCCC(=O)N(C)C)nc4N4CCN(C(=O)/C=C/CN(C)C)[C@@H](CC#N)C4)C3)c12` [Example 463, (S,E)-3-((4-(3-(cyanomethyl)-4-(4-(dimethylamino)but-2-enoyl)piperazin-1-yl)-7-(8-methylnaphthalen-1-yl)-5,6,7,8-tetrahydropyrido[3,4-d]pyrimidin-2-yl)oxy)-N,N-dimethylpropanamide]: the pIC50 was 6.00 to 10.00.

With `C=CC(=O)N1CCN(c2nc(OCCCN3CCOCC3)nc3c2CCN(c2cc(O)cc(Cl)c2F)C3)CC1` [Example 232, 1-(4-(7-(3-chloro-2-fluoro-5-hydroxyphenyl)-2-(3-morpholinopropoxy)-5,6,7,8-tetrahydropyrido[3,4-d]pyrimidin-4-yl)piperazin-1-yl)prop-2-en-1-one], the pIC50 was under 6.00.

`C=CC(=O)N1CCN(c2nc(N3CC[C@H](N(C)C)C3)nc3c2CCN(c2cccc4ccccc24)C3)C[C@@H]1CC#N` [Example 403]: the pIC50 is 6.00 to 10.00.

Consider `C=CC(=O)N1CCN(c2nc(OCCN3CCCCC3)nc3c2CCN(c2cc(O)cc4ccccc24)C3)CC1` [Example 52, 1-[4-[7-(3-hydroxy-1-naphthyl)-2-[2-(1-piperidyl)ethoxy]-6,8-dihydro-5H-pyrido[3,4-d]pyrimidin-4-yl]piperazin-1-yl]prop-2-en-1-one], for which the pIC50 was 6.00 to 10.00.

As to `C=CC(=O)N1CCN(c2ncnc3c2CC(C)N(c2cc(O)cc4ccccc24)C3)CC1` (stereo not shown) [Example 6, 1-(4-(7-(3-hydroxynaphthalen-1-yl)-6-methyl-5,6,7,8-tetrahydropyrido[3,4-d]pyrimidin-4-yl)piperazin-1-yl)prop-2-en-1-one], the pIC50 was under 6.00.

As for `Cc1cccc2cccc(N3CCc4c(nc(OC[C@@H]5CCCN5C)nc4N4CCN(C(=O)/C=C/C(N)=O)[C@@H](CC#N)C4)C3)c12` [Example 500, (E)-4-((S)-2-(cyanomethyl)-4-(7-(8-methylnaphthalen-1-yl)-2-(((S)-1-methylpyrrolidin-2-yl)methoxy)-5,6,7,8-tetrahydropyrido[3,4-d]pyrimidin-4-yl)piperazin-1-yl)-4-oxobut-2-enamide], the pIC50 was 6.00 to 10.00.

With `C=CC(=O)N1CCN(c2nc(OCCN3CCN(C(C)=O)CC3)nc3c2CCN(c2cc(O)cc4ccccc24)C3)CC1` [Example 37, 1-(4-(2-(2-(4-acetylpiperazin-1-yl)ethoxy)-7-(3-hydroxynaphthalen-1-yl)-5,6,7,8-tetrahydropyrido[3,4-d]pyrimidin-4-yl)piperazin-1-yl)prop-2-en-1-one], the pIC50 was under 6.00.

Regarding `C=CC(=O)N1CCN(c2nc(OC[C@@H]3CCCN3CCOC)nc3c2CCN(c2cc(O)cc4ccccc24)C3)CC1` [Example 144, (S)-1-(4-(7-(3-hydroxynaphthalen-1-yl)-2-((1-(2-methoxyethyl)pyrrolidin-2-yl)methoxy)-5,6,7,8-tetrahydropyrido[3,4-d]pyrimidin-4-yl)piperazin-1-yl)prop-2-en-1-one], the pIC50 is 6.00 to 10.00.

With `C=CC(=O)N1CCN(c2ncnc3c2CC(=O)N(c2cc(O)cc4ccccc24)C3)CC1` [Example 113, 4-(4-acryloylpiperazin-1-yl)-7-(3-hydroxynaphthalen-1-yl)-7,8-dihydropyrido[3,4-d]pyrimidin-6(5H)-one], the negative logarithm of the IC50 (pIC50) was under 6.00.

Take `C=CC(=O)N1CCN(c2nc(OCCN(C)CCO)nc3c2CCN(c2cc(O)cc4ccccc24)C3)CC1` [Example 83, 1-(4-(2-(2-((2-hydroxyethyl)(methyl)amino)ethoxy)-7-(3-hydroxynaphthalen-1-yl)-5,6,7,8-tetrahydropyrido[3,4-d]pyrimidin-4-yl)piperazin-1-yl)prop-2-en-1-one]: the pIC50 was under 6.00.

As for `C=CC(=O)N1CCN(c2nc(OC[C@@H]3CCCN3C)nc3c2CCN(c2ccc(F)c4ccccc24)C3)C[C@@H]1CC#N` [Example 316, 2-((S)-1-acryloyl-4-(7-(4-fluoronaphthalen-1-yl)-2-(((S)-1-methylpyrrolidin-2-yl)methoxy)-5,6,7,8-tetrahydropyrido[3,4-d]pyrimidin-4-yl)piperazin-2-yl)acetonitrile], the pIC50 was 6.00 to 10.00.

Consider `C=CC(=O)N1CCN(c2nc(OC[C@H]3CCCCN3C)nc3c2CCN(c2cccc4ccccc24)C3)C[C@@H]1CC#N` [Example 432, 2-((S)-1-acryloyl-4-(2-(((R)-1-methylpiperidin-2-yl)methoxy)-7-(naphthalen-1-yl)-5,6,7,8-tetrahydropyrido[3,4-d]pyrimidin-4-yl)piperazin-2-yl)acetonitrile], for which the pIC50 was 6.00 to 10.00.

In the case of `C=CC(=O)N1CCN(c2nc(OC[C@@H]3C[C@@H](OC)CN3C)nc3c2CCN(c2cccc4ccccc24)C3)CC1CC#N` (stereo partly drawn) [Example 381, 2-(1-acryloyl-4-(2-(((2S,4R)-4-methoxy-1-methylpyrrolidin-2-yl)methoxy)-7-(naphthalen-1-yl)-5,6,7,8-tetrahydropyrido[3,4-d]pyrimidin-4-yl)piperazin-2-yl)acetonitrile], the pIC50 was 6.00 to 10.00.

`C=CC(=O)N1CCN(c2nc(OC[C@@H]3CCCN3C)nc3c2CCN(c2cccc4cc(F)ccc24)C3)CC1CC#N` (stereo partly drawn) [Example 259, 2-[4-[7-(6-fluoro-1-naphthyl)-2-[[(2S)-1-methylpyrrolidin-2-yl]methoxy]-6,8-dihydro-5H-pyrido[3,4-d]pyrimidin-4-yl]-1-prop-2-enoyl-piperazin-2-yl]acetonitrile]: the pIC50 was 6.00 to 10.00.

As for `C=CC(=O)N1CCN(c2nc(OC[C@@H]3COCCN3C)nc3c2CCN(c2cccc4ccccc24)C3)CC1CC#N` (stereo partly drawn) [Example 272, 2-(1-acryloyl-4-(2-(((S)-4-methylmorpholin-3-yl)methoxy)-7-(naphthalen-1-yl)-5,6,7,8-tetrahydropyrido[3,4-d]pyrimidin-4-yl)piperazin-2-yl)acetonitrile], the pIC50 was 6.00 to 10.00.

For `C=CC(=O)N1CCN(c2nc(OCCN3CCC[C@H](OC)C3)nc3c2CCN(c2cc(O)cc4ccccc24)C3)CC1` [Example 98, (S)-1-(4-(7-(3-hydroxynaphthalen-1-yl)-2-(2-(3-methoxypiperidin-1-yl)ethoxy)-5,6,7,8-tetrahydropyrido[3,4-d]pyrimidin-4-yl)piperazin-1-yl)prop-2-en-1-one], the pIC50 is under 6.00.

Consider `C=CC(=O)N1CCN(c2nc(OC[C@@H]3CCCN3C)nc3c2CCN(c2ccccc2C(F)(F)F)C3)C[C@@H]1CC#N` [Example 237, 2-((S)-1-acryloyl-4-(2-(((S)-1-methylpyrrolidin-2-yl)methoxy)-7-(2-(trifluoromethyl)phenyl)-5,6,7,8-tetrahydropyrido [3,4-d]pyrimidin-4-yl)piperazin-2-yl)acetonitrile 2,2,2-trifluoroacetate], for which the pIC50 was 6.00 to 10.00.

In the case of `C=CC(=O)N1CCN(c2ncnc3c2CCN(c2cccc4ccccc24)C3)CC1` [Example 3, 1-(4-(7-(naphthalen-1-yl)-5,6,7,8-tetrahydropyrido[3,4-d]pyrimidin-4-yl)piperazin-1-yl)prop-2-en-1-one], the pIC50 is under 6.00.

For the molecule `C#CC[C@H]1CN(c2nc(OC[C@@H]3CCCN3C)nc3c2CCN(c2cccc4ccccc24)C3)CCN1C(=O)C=C` [Example 358, 1-[(2S)-4-[2-[[(2S)-1-methylpyrrolidin-2-yl]methoxy]-7-(1-naphthyl)-6,8-dihydro-5H-pyrido[3,4-d]pyrimidin-4-yl]-2-prop-2-ynyl-piperazin-1-yl]prop-2-en-1-one], the pIC50 was 6.00 to 10.00.

For `C=CC(=O)N1CCN(c2nc(OCC3CCN(C)C3)nc3c2CCN(c2c(C)ccc4[nH]ncc24)C3)CC1` (stereo not shown) [Example 161, 1-[4-[7-(5-methyl-1H-indazol-4-yl)-2-[(1-methylpyrrolidin-3-yl)methoxy]-6,8-dihydro-5H-pyrido[3,4-d]pyrimidin-4-yl]piperazin-1-yl]prop-2-en-1-one], the pIC50 was under 6.00.

In the case of `C=CC(=O)N1C[C@@H](C)N(c2nc(OC[C@@H]3CCCN3C)nc3c2CCN(c2cccc4ccccc24)C3)C[C@@H]1CC#N` [Example 378, 2-((2S,5R)-1-acryloyl-5-methyl-4-(2-(((S)-1-methylpyrrolidin-2-yl)methoxy)-7-(naphthalen-1-yl)-5,6,7,8-tetrahydropyrido[3,4-d]pyrimidin-4-yl)piperazin-2-yl)acetonitrile], the pIC50 is 6.00 to 10.00.
